According to US20080249024A1, “Peptides facilitating or inhibiting a nterograde transport” (priority 2006, published 2008):
Several values for one entry are separate records, joined by “and”; a condition that tells them apart may be missing. Identical values can stand only once. Like-named read-outs stand apart in the source and are kept apart here.

How the values were obtained:
[1] = molecular target: axoplasmic motors (squid giant axon); assay: cell-based or functional assay
giant axon of the squid = assay: Transport of peptide- or protein-conjugated fluorescent beads injected into the squid giant axon, confocal time-lapse; format: cell-based, squid (Loligo pealei); settings: for Max. Velocity / Ave. Velocity (instantaneous): beads conjugated to peptide/protein; for Ave. Velocity (instantaneous): number of moves in brackets; for transport behaviour of conjugated beads in the axon (in words): co-injected with other beads into the same axon; for beads leaving the injection site per minute: 10^6 beads injected
Procedure: The giant axon was obtained from squid (Loligo pealei) at the Marine Biological Laboratory, Woods Hole, Mass. (46). Red and green beads, each conjugated to a different peptide (1.5 nl at […]), were loaded into a mercury micropipette either as a mixture or in equal volumes separated by oil (Bearer, E. L., et al., (2000) Proc Natl Acad Sci USA 97, 8146-50; Terasaki, M., S. et al., (1995) Proc Natl Acad Sci U S A 92, 11500-3; Jaffe, L. A. & Terasaki, M. (2004) Methods Cell Biol 74, 219-42, FIG. S1). For each pair of beads the order of injection was alternated such that each color would have an opportunity to recruit motors first.
Carboxylated microspheres (beads, 0.1 μm diameter) with red (580/605 nm) and green (505/515 nm) fluorescence (Invitrogen) were washed through a Low Binding Durapore filter (100 nm cut-off, Millipore). Uncoated beads were diluted in motility buffer (Brady, S. et al., (1982) Science 218, 1129-31) and injected without further treatment.
Custom synthesized peptides (Aves Labs, Inc) were cross-linked to beads via their amino terminus to allow presentation of the carboxy end of the peptide to the cytoplasm, mimicking the physiological orientation of APP. APP constructs (C99 and APP-680) were generated by PCR from human APP-YFP in pShuttleCMV (E.-M. Mandelkow and Jacek Biernat, Max Planck Institute, Hamburg, Germany (Stamer, K., V. et al., (2002) J Cell Biol 156, 1051-63)). APP-YFP is actively transported in neurons (Stamer et al., supra). For C99, the YFP moiety was replaced with mRFP (Campbell, R. E., et al., (2002) Proc Natl Acad Sci USA 99, 7877-82.) and for APP-680 with GFP. Each construct was cross-linked to a bead of similar spectrum as the fluorescent protein, and conjugated beads individually checked for monochromic emission by confocal. […] Accuracy of all sequences was confirmed by sequencing. Recombinant protein was generated in PC12 cells and purified by anti-fluorescent protein affinity columns (Vector Labs). Protein concentrations were determined by Bio-Rad protein assay, and composition and purity determined by SDS-PAGE.
Peptides or recombinant proteins (20 μl of a 2 mg/ml stock) were mixed in 300 μl of 50 mM MES buffer with 10 μl of 2% beads for 15 min. Cross-linker (1-(3-dimethylaminopropyl)-3-ethylcarbodiimide hydrochloride; EDAC, Molecular Probes) was added to a concentration of 10 μg/ml and the solution adjusted to pH 6.5 with 1M NaOH. After 5 hr the reaction was quenched by adding 2M glycine for a final of 0.1M. Conjugation was confirmed by analyzing peptide concentrations before and after by protein assay. Protein:bead ratio was adjusted that equivalent molar amounts of each protein would be conjugated to the beads. Efficiency of conjugation was relatively similar for all peptides. Binding sites on the beads (10^6) were saturated by using 300-1000 fold excess peptide. For C99 and APP-680, protein concentration was adjusted so that 3,000 copies per bead were conjugated to the surface and unoccupied sites blocked with glycine.
Detection parameters were set to ensure that each color was uniquely detected in its appropriate channel by imaging beads on coverslips with the Zeiss LSM 510 Laser Scanning Confocal Microscope. Fluorescent bead movements in the axon were collected with 10× Plan Neofluor 0.3NA air, and 40× Achroplan 0.8NA water correctible objectives. Green and red fluorescence and phase images were collected simultaneously using Zeiss LSM510 multi-tracking.
Rates and trajectories of APP-C beads were measured by stepping through the frames in either the Zeiss LSM browser or NIH ImageJ (http://rsb.info.nih.gov/nih-image/). Only particles moving into and out of a frame were included. Rates of moving particles were statistically analyzed and graphed using Microsoft Excel.

giant axon = assay: Comparison of velocity of JIP and APP peptide beads and carboxylated negative charge beads in the giant axon (Metamorph); format: cell-based, squid
Procedure: (§1) JIP peptide was conjugated to 100 nm fluorescent nanospheres (beads) following the protocol described in Example 1. Washed conjugated beads were injected into a freshly dissected giant squid axon and transport imaged by confocal microscopy.
Movements of beads conjugated to APP-C, JIP, or unconjugated (negative charge) after injection in the axon were measured using Metamorph imaging software (Molecular Devices). Average velocity of JIP beads was 20% faster than APP or negative charge. As is known, negative charge beads are transported in the axon but less frequently than peptide-conjugated beads.
The different surfaces of the beads influence the average rate of movements. In this experiment, movements between frames were measured only when beads moved into and out of the frame.

kinesin 3 (Kif1a) = molecular target: T1, kinesin 3 (Kif1a) (Rattus norvegicus, UniProt F1M4A4); assay: Peptide-bead pull-down from rat brain extract, Western blot for kinesin 3; format: binding; settings: Western blot of beads and supernatants
T1 construct: tissue Pelco; host or cells: rat brain cortex extract
T1 sequence (F1M4A4 whole entry): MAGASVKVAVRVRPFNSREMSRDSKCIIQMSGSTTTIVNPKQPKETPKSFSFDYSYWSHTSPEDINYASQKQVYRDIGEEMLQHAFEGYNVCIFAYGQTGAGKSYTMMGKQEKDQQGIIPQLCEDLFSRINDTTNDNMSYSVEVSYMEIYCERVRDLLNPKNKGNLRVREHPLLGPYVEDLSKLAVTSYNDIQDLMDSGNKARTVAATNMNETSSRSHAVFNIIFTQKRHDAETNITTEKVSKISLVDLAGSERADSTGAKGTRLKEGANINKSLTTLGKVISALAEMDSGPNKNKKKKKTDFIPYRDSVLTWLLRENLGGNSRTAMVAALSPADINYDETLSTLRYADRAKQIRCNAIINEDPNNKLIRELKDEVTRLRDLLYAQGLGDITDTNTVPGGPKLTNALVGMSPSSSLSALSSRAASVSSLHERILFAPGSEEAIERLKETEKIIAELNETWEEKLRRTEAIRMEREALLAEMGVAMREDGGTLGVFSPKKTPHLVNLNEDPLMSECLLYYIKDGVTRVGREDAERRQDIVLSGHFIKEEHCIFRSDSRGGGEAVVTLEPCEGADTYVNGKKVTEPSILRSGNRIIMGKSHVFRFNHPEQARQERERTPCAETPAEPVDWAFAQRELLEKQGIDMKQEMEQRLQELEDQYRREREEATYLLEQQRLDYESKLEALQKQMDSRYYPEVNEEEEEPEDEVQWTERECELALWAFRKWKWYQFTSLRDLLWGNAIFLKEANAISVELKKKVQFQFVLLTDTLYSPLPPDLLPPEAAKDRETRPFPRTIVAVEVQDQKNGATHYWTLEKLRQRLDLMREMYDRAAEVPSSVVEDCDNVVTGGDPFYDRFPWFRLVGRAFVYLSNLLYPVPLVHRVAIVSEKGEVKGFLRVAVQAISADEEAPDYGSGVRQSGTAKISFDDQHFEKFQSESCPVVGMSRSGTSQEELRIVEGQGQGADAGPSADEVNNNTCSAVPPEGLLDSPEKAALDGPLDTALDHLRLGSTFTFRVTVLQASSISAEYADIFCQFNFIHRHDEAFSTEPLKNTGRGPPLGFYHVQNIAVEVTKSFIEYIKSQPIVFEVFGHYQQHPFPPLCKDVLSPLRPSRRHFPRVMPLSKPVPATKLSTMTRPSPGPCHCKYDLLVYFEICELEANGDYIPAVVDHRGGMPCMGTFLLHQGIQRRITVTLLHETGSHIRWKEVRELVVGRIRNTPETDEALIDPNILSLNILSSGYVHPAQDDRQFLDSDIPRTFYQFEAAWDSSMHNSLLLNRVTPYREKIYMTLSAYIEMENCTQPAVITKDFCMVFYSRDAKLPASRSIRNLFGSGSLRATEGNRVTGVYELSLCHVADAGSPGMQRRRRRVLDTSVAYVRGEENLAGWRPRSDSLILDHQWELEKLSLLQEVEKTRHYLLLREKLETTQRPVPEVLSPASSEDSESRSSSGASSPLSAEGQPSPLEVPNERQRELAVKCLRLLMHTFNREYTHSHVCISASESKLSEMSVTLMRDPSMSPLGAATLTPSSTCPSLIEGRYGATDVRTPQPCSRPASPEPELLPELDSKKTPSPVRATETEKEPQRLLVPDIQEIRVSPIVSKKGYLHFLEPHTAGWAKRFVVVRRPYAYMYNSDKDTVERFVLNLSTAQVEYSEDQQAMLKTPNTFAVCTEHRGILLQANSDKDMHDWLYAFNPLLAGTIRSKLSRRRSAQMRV
Procedure: (§2) Rat brain extract was prepared from frozen rat brain (Pelco). Rat brain was cut from a frozen block of cortex, weighed, and solubilized in 1% Triton and buffer with sonication (3 times 1 sec bursts with a Branson sonicator set at microtip 4). After clarifying centrifugation at 15,000×g for 15 min, 10 μl of extract in pulldown buffer (Lazarov et al. 2005, supra) was layered over carboxylated beads conjugated to various peptides according to the manufacturer's instructions (Dynal).

giant squid axon = assay: JIP peptide-coated bead transport in giant squid axon, confocal microscopy; format: cell-based; settings: injection site imaged at 0 and 55 min
Procedure: as §1

kinesin 1 heavy chain = assay: Peptide-bead pull-down from rat brain extract, Western blot for kinesin 1; format: binding; settings: Western blot of beads and supernatants
Procedure: as §2

[2] = molecular target: axoplasmic motors (squid giant axon); assay: cell-based or functional assay; remark: listed apart in the source

**Q.** For “C99, a polypeptide containing the C-terminal 99 amino acids of human APP (with mRFP in place of YFP) (from UniProt P05067 597-695)”, which percent of beads that move (squid giant axon, no peptide) [1] is on record?
**A.** 39.5%

**Q.** And the percent of beads that move after pre-injection of soluble APP-C peptide [1]?
**A.** 10.3%

**Q.** What does the source list for “C99: recombinant C-terminal 99 amino acids of human APP with mRFP, full cytoplasmic domain; 3,000 copies per 100 nm bead”?
**A.** percent of beads that move, with peptide (giant axon of the squid; axon pre-injected with soluble APP-C peptide, average of 3 100-frame videos): 10.3%+/−4.4; Max. Velocity (giant axon of the squid): 1.46 μm/s; Ave. Velocity (instantaneous) (giant axon of the squid): 0.66+/−0.08 μm/s and 0.66 +/− 0.08 (194) μm/s; transport behaviour of conjugated beads in the axon (in words) (giant axon of the squid): both types of beads were transported; percent of beads that move (giant axon of the squid; without peptide, moving = translocated >3 consecutive frames, average of 3 100-frame videos, within 500 μm of injection site): 39.5%+/−4.5

**Q.** For “FVE YTC PTE DIY LE (FVEYTCPTEDIYLE) [JIP-1]”, which “average velocity faster than APP or negative charge beads” value (giant axon) is on record?
**A.** 20%

**Q.** And the “speed relative to negative charge beads (in words)” value (giant axon)?
**A.** almost twice as fast

**Q.** What about the Max velocity (giant axon; beads in the giant axon) of the same molecule?
**A.** 0.96 μm/sec

**Q.** And the Ave velocity (giant axon; instantaneous velocity of beads in the axon, only beads moving into and out of the frame)?
**A.** 0.5 +/− 0.01 μm/sec

**Q.** And the “pull-down of kinesin 3 (Kif1a) from brain extract” value (kinesin 3 (Kif1a))?
**A.** preferentially pulls down kinesin 3 (Kif1a)

**Q.** And the “transport of JIP beads in the axon (in words)” value (giant squid axon)?
**A.** a stream of beads can be seen heading towards the synapse

**Q.** “GEPYFEMNYNTKFQQ (listed as Homo sapiens) [APP-C^j, reference compound]” was tested. Which “beads leaving the injection site per minute” value (giant axon of the squid) did it give?
**A.** None

**Q.** How did the “pull-down of kinesin 1 heavy chain from brain extract” value (kinesin 1 heavy chain) turn out when “GYENPTYKFFEQMQN (listed as Homo sapiens) [APP-C, tested conjugated to beads or as soluble peptide]” was run?
**A.** preferentially bind to kinesin 1 heavy chain

**Q.** And the “Max. Velocity” value (giant axon of the squid)?
**A.** 0.9 μm/s

**Q.** What about the “Ave. Velocity (instantaneous)” value (giant axon of the squid) of the same molecule?
**A.** 0.41 +/− 0.07 (227) μm/s

**Q.** With “GYENPTYKYFE-MQN (GYENPTYKYFEMQN; listed as Loligo pealei) [APP-C (squid)]” as the molecule, how does the “Max. Velocity” value (giant axon of the squid) read?
**A.** 0.9 μm/s

**Q.** And the “Ave. Velocity (instantaneous)” value (giant axon of the squid)?
**A.** 0.53 +/− 0.09 (54) μm/s

**Q.** For “HMNCQNGKWDSDPSGTKTCI (listed as Homo sapiens) [APP-N, reference compound]”, which “beads leaving the injection site per minute” value (giant axon of the squid) is on record?
**A.** ~0.001 ×10^3 per minute

**Q.** What about the “transport behaviour of conjugated beads in the axon (in words)” value (giant axon of the squid) of the same molecule?
**A.** remained stationary at the injection site

**Q.** How did the percent of beads that move (squid giant axon, no peptide) [2] turn out when GYENPTYKFFEQMQN was run?
**A.** 36%

**Q.** What about the percent of beads that move after pre-injection of soluble APP-C peptide [2] of the same molecule?
**A.** 0%
